Measured values reported in patent US20050281750A1, “Sprayable compositions comprising a combination of pharmaceutical active agents, an alcohol phase, at least one volatile silicone and a non-volatile oily phase” (GALDERMA S.A., priority 2004, published 2005).

Tests used:
Format in all cases: physicochemical
[1] = Stability of calcitriol in Miglyol 812 (caprylic/capric triglycerides) (HPLC assay); settings: for Measured concentration of calcitriol in % relative to T0: 30 ppm in Miglyol 812, 0.4% BHT
From the text: (§1) Calcitriol stability data were generated in various excipients, including ethanol 100, an ethanol 100 (75%)/cyclomethicone 5 (25%) mixture, or oils such as Miglyol 812 and Cetiol SN. • a) Stability of Calcitriol in Ethanol: c) Stability of Calcitriol in Miglyol 812 (Caprylic/Capric Triglycerides): Solution of 30 ppm of calcitriol in qsp 100% of Miglyol 812, in the presence of 0.4% of BHT. Technique of HPLC assay against a reference substance. At the starting time (T0) the composition is considered to comprise 100% of calcitriol. Measured concentration of calcitriol in % relative to T0: […]

[2] = Stability of calcitriol in ethanol/cyclopentasiloxane (HPLC assay against a reference substance); settings: for Measured concentration of calcitriol in % relative to T0: 30 ppm in 75% absolute ethanol + 25% cyclopentasiloxane, 0.02% BHT
From the text: as §1, with “Ethanol: b)” for “Ethanol: c)”, “in Ethanol/Cyclopentasiloxane:” for “in Miglyol 812 (Caprylic/Capric Triglycerides):”, “qsp 75%” for “qsp 100%”, “of absolute ethanol+25% of cyclopentasiloxane,” for “of Miglyol 812,”, “of 0.02%” for “of 0.4%”

[3] = Stability of calcitriol in ethanol (HPLC assay against a reference substance); settings: for Measured concentration of calcitriol in % relative to T0: 30 ppm in absolute ethanol, 0.02% BHT
From the text: Calcitriol stability data were generated in various excipients, including ethanol 100, an ethanol 100 (75%)/cyclomethicone 5 (25%) mixture, or oils such as Miglyol 812 and Cetiol SN. • a) Stability of Calcitriol in Ethanol: Solution of 30 ppm of calcitriol in qsp 100% of absolute ethanol, in the presence of 0.02% of BHT. Technique of HPLC assay against a reference substance. At the starting time (T0) the composition is considered to comprise 100% of calcitriol. Measured concentration of calcitriol in % relative to T0: […]

[4] = Stability of calcitriol in Cetiol SN (cetearyl isononanoate) (HPLC assay); settings: for Measured concentration of calcitriol in % relative to T0: 30 ppm in Cetiol SN, 0.4% BHT
From the text: as §1, with “d)” for “c)”, “Cetiol SN (Cetearyl Isononanoate):” for “Miglyol 812 (Caprylic/Capric Triglycerides):”, “Cetiol SN (cetearyl isononanoate),” for “Miglyol 812,”

C=C1/C(=C\C=C2/CCC[C@]3(C)[C@@H]([C@H](C)CCCC(C)(C)O)CC[C@@H]23)C[C@@H](O)C[C@@H]1O [calcitriol]
Measured concentration of calcitriol in % relative to T0 ([1]; +4° C., T 2 weeks): 98.3% | Measured concentration of calcitriol in % relative to T0 ([1]; +4° C., T 4 weeks): 105.2% | Measured concentration of calcitriol in % relative to T0 ([1]; +40° C., T 2 weeks): 91% | Measured concentration of calcitriol in % relative to T0 ([1]; +40° C., T 4 weeks): 93.8% | Measured concentration of calcitriol in % relative to T0 ([1]; RT, T 2 weeks): 95.1% | Measured concentration of calcitriol in % relative to T0 ([1]; RT, T 4 weeks): 98.0% | Stability of calcitriol (in words) ([1]; in Miglyol 812): good stability | Measured concentration of calcitriol in % relative to T0 ([2]; +4° C., T 2 weeks): 99.2% | Measured concentration of calcitriol in % relative to T0 ([2]; +4° C., T 3 weeks): 99.6% | Measured concentration of calcitriol in % relative to T0 ([2]; +4° C., T 4 weeks): 97.5% | Measured concentration of calcitriol in % relative to T0 ([2]; +30° C., T 2 weeks): 93.8% | Measured concentration of calcitriol in % relative to T0 ([2]; +30° C., T 4 weeks): 93.3% | Measured concentration of calcitriol in % relative to T0 ([2]; −18° C., T 2 weeks): 100.4% | Measured concentration of calcitriol in % relative to T0 ([2]; −18° C., T 3 weeks): 101.3% | Measured concentration of calcitriol in % relative to T0 ([2]; −18° C., T 4 weeks): 99.2% | Stability of calcitriol (in words) ([2]; in an ethanol/cyclopentasiloxane mixture): good stability | Measured concentration of calcitriol in % relative to T0 ([3]; +4° C., T 1 week): 97.7% | Measured concentration of calcitriol in % relative to T0 ([3]; +4° C., T 2 weeks): 98.6% | Measured concentration of calcitriol in % relative to T0 ([3]; +4° C., T 3 weeks): 98.1% | Measured concentration of calcitriol in % relative to T0 ([3]; +4° C., T 4 weeks): 97.7% | Measured concentration of calcitriol in % relative to T0 ([3]; +30° C., T 2 weeks): 93.4% | Measured concentration of calcitriol in % relative to T0 ([3]; +30° C., T 4 weeks): 93.0% | Measured concentration of calcitriol in % relative to T0 ([3]; −18° C., T 1 week): 100.9% | Measured concentration of calcitriol in % relative to T0 ([3]; −18° C., T 2 weeks): 100.5% | Measured concentration of calcitriol in % relative to T0 ([3]; −18° C., T 3 weeks): 99.5% | Measured concentration of calcitriol in % relative to T0 ([3]; −18° C., T 4 weeks): 99.5% | Stability of calcitriol (in words) ([3]; in ethanol): good stability | Measured concentration of calcitriol in % relative to T0 ([4]; +4° C., T 2 weeks): 98.6% | Measured concentration of calcitriol in % relative to T0 ([4]; +4° C., T 4 weeks): 98.1% | Measured concentration of calcitriol in % relative to T0 ([4]; +40° C., T 2 weeks): 99.0% | Measured concentration of calcitriol in % relative to T0 ([4]; +40° C., T 4 weeks): 98.9% | Measured concentration of calcitriol in % relative to T0 ([4]; RT, T 2 weeks): 98.7% | Measured concentration of calcitriol in % relative to T0 ([4]; RT, T 4 weeks): 98.4% | Stability of calcitriol (in words) ([4]; in Cetiol SN): good stability
